Converted amounts (≈) assume the structure as drawn.
What was measured:
[1] = test system: Bacillus subtilis; assay: Antibacterial activity against Bacillus subtilis after 17 hrs by NCCLS broth microdilution method; type: functional
[2] = test system: Bacillus cereus; assay: Antibacterial activity against Bacillus cereus after 17 hrs by NCCLS broth microdilution method; type: functional
[3] = test system: Staphylococcus aureus; assay: Antibacterial activity against Staphylococcus aureus after 17 hrs by NCCLS broth microdilution method; type: functional
[4] = test system: Staphylococcus aureus; assay: Antibiofilm activity against methicillin-resistant Staphylococcus aureus at 100 ug/ml after 18 hrs by crystal violet staining-based method relative to control; type: functional
[5] = Antioxidant activity assessed as trolox equivalent of AAPH-induced radical scavenging activity preincubated for 30 mins followed by […] challenge measured every 1.14 mins for 120 mins by ORAC-FL assay; type: functional
[6] = test system: Escherichia coli; assay: Antibacterial activity against Escherichia coli after 17 hrs by NCCLS broth microdilution method; type: functional
[7] = test system: Listeria monocytogenes; assay: Antibacterial activity against Listeria monocytogenes after 17 hrs by NCCLS broth microdilution method; type: functional
[8] = Antioxidant activity assessed as reduction of Fe3+-TPTZ to Fe2+-TPTZ by measuring trolox equivalence of antioxidant capacity by FRAP assay; type: functional
[9] = test system: Salmonella typhimurium; assay: Antibacterial activity against Salmonella typhimurium after 17 hrs by NCCLS broth microdilution method; type: functional, Salmonella enterica subsp. enterica serovar Typhimurium; conditions: Salmonella enterica
[10] = test system: Staphylococcus aureus; assay: Antibiofilm activity against methicillin-resistant Staphylococcus aureus at 150 ug/ml after 18 hrs by crystal violet staining-based method relative to control; type: functional
[11] = test system: Vibrio cholerae; assay: Antibacterial activity against Vibrio cholerae after 17 hrs by NCCLS broth microdilution method; type: functional
[12] = test system: Aliarcobacter butzleri; assay: Antibacterial activity against Arcobacter butzleri after 17 hrs by NCCLS broth microdilution method; type: functional
[13] = test system: Campylobacter jejuni; assay: Antibacterial activity against Campylobacter jejuni after 17 hrs by NCCLS broth microdilution method; type: functional
[14] = test system: Campylobacter coli; assay: Antibacterial activity against Campylobacter coli after 17 hrs by NCCLS broth microdilution method; type: functional
[15] = test system: Aliarcobacter cryaerophilus; assay: Antibacterial activity against Arcobacter cryaerophilus after 17 hrs by NCCLS broth microdilution method; type: functional
[16] = Antioxidant activity assessed as ABTS radical scavenging activity by measuring trolox equivalence of antioxidant capacity at 1 uM up to 24 hrs by spectrophotometric analysis; type: functional
[17] = Antioxidant activity assessed as DPPH free radical scavenging activity incubated for 30 mins in dark condition; type: functional
[18] = test system: Staphylococcus aureus; assay: Antibacterial activity against methicillin-resistant Staphylococcus aureus after 24 hrs by microbroth dilution method; type: functional
[19] = Antioxidant activity assessed as DPPH free radical scavenging activity; type: functional
[20] = test system: Escherichia coli; assay: Antibacterial activity against Escherichia coli; type: functional
[21] = test system: Staphylococcus aureus; assay: Antibacterial activity against Staphylococcus aureus; type: functional
[22] = test system: Staphylococcus aureus; assay: Antibacterial activity against Staphylococcus aureus after 16 hrs by broth microdilution method; type: functional
[23] = test system: Escherichia coli; assay: Antibacterial activity against Escherichia coli after 16 hrs by broth microdilution method; type: functional
[24] = test system: Escherichia coli; assay: Antibacterial activity against Escherichia coli KCTC 1924 after 20 to 36 hrs by disc diffusion method; type: functional
[25] = Antioxidant activity assessed as DPPH free radical scavenging activity incubated for 30 min by UV-vis spectrophotometric analysis; type: functional
[26] = test system: Staphylococcus aureus; assay: Antibacterial activity against Staphylococcus aureus KCTC 1916 after 20 to 36 hrs by disc diffusion method; type: functional
[27] = test system: Staphylococcus aureus; assay: Antibacterial activity against Staphylococcus aureus ATCC 6538 by agar diffusion method; type: functional
[28] = test system: Escherichia coli; assay: Antibacterial activity against Escherichia coli ATCC 10536 by agar diffusion method; type: functional
[29] = Antioxidant activity assessed as BTH equivalent of DPPH-induced radical scavenging activity; type: functional
[30] = test system: Staphylococcus aureus; assay: Bactericidal activity against Staphylococcus aureus ATCC 29213 incubated for 24 hrs by serial dilution method; type: functional
[31] = test system: Staphylococcus aureus; assay: Antibacterial activity against Staphylococcus aureus ATCC 29213 assessed as inhibition of bacterial growth at 25 g/L incubated for 24 hrs by serial dilution method relative to cntrol; type: functional; conditions: ATCC 29213, 24 h, read-out: GI
[32] = test system: Staphylococcus aureus; assay: Bactericidal activity against Staphylococcus aureus incubated for 24 hrs measured every 30 mins by spectrophotometric analysis; type: functional

Compound: Oc1ccc(/C=C/c2cc(O)cc(O)c2)cc1 [RESVERATROL]
- MIC [1]: 16.5 to 260 µg/mL (≈ 72.3 to 1140 µM)
- MIC [2]: 16.5 to 260 µg/mL (≈ 72.3 to 1140 µM)
- MIC [3]: 16.5 to 260 µg/mL (≈ 72.3 to 1140 µM)
- inhibition at 100 µg/mL [4]: 39.9%
- Activity [5]: 3.67 mM
- MIC [6]: 0.625 to 521 µg/mL (≈ 2.74 to 2280 µM)
- MIC [7]: 16.5 to 260 µg/mL (≈ 72.3 to 1140 µM)
- Activity [8]: 0.47 mM
- MIC [9]: 0.625 to 521 µg/mL (≈ 2.74 to 2280 µM)
- inhibition at 150 µg/mL [10]: 23.4%
- MIC [11]: 0.625 to 521 µg/mL (≈ 2.74 to 2280 µM)
- MIC [12]: 0.625 to 521 µg/mL (≈ 2.74 to 2280 µM)
- MIC [13]: 0.625 to 521 µg/mL (≈ 2.74 to 2280 µM)
- MIC [14]: 0.625 to 521 µg/mL (≈ 2.74 to 2280 µM)
- MIC [15]: 0.625 to 521 µg/mL (≈ 2.74 to 2280 µM)
- Activity [16]: 1.57 mM

Compound: COc1cc(C2CC(C(=NNc3ccc(C)cc3)C3=NC(=S)NC(c4ccc(O)c(OC)c4)C3)=NC(=S)N2)ccc1O (configuration not stated)
- IC50 [17]: 0.679 µg/mL (≈ 1.13 µM)

Compound: COc1cc(/C=C/c2cc(/C=C/c3ccc(OCC(=O)N[C@@H](C)c4ccccc4)c(OC)c3)[nH]n2)ccc1OCC(=O)N[C@@H](C)c1ccccc1
- MIC [18]: 10 to 20 µg/mL (≈ 14.6 to 29.1 µM)

Compound: COc1cccc2c1OCC(c1nnn(Cc3cn(Cc4ccccc4)nn3)n1)=C2
- IC50 [19]: 78.74 µg/mL (≈ 196 µM)
- MIC [20]: 9.5 µg/mL (≈ 23.7 µM)
- MIC [21]: 10.5 µg/mL (≈ 26.2 µM)

Compound: COc1cc(/C=C/c2cc(/C=C/c3ccc(OCC(=O)Nc4ccc(F)cc4)c(OC)c3)[nH]n2)ccc1OCC(=O)Nc1ccc(F)cc1
- MIC [18]: 10 to 20 µg/mL (≈ 15 to 30 µM)

Compound: Cc1ccc(C(C)C)c(O)c1 [THYMOL]
- MIC [22]: 2.5 µg/mL (≈ 16.6 µM)
- MIC [23]: 2.5 µg/mL (≈ 16.6 µM)

Compound: COc1cc(/C=C/c2cc(/C=C/c3ccc(OCC(=O)NCc4ccccc4)c(OC)c3)[nH]n2)ccc1OCC(=O)NCc1ccccc1
- MIC [18]: 10 to 20 µg/mL (≈ 15.2 to 30.4 µM)

Compound: Oc1ccc2cc(Br)ccc2c1-c1c[nH]c2ccccc12
- MIC [24]: 5.32 µg/mL (≈ 15.7 µM)
- EC50 [25]: 3.8 µg/mL (≈ 11.2 µM)
- MIC [26]: 14.8 µg/mL (≈ 43.8 µM)

Compound: O=C(CCc1ccc(O)cc1)c1c(O)cc(O)cc1O [PHLORETIN]
- MIC [27]: 100 µg/mL (≈ 365 µM)
- MIC [28]: 250 µg/mL (≈ 912 µM)
- Activity [29]: 1.27 mg.equiv

Compound: C=CCc1ccc(O)c(OC)c1 [EUGENOL]
- MIC [22]: 2.5 µg/mL (≈ 15.2 µM)
- MIC [23]: 2.5 µg/mL (≈ 15.2 µM)

Compound: COc1cc(N)ccc1O
- MBC99 [30]: 10 mM (≈ 1390 µg/mL)
- inhibition of growth at 25000 µg/mL [31]: 93%

Compound: COc1cc(/C=C/c2cc(/C=C/c3ccc(OCC(=O)Nc4ccccc4)c(OC)c3)[nH]n2)ccc1OCC(=O)Nc1ccccc1
- MIC [18]: 10 to 20 µg/mL (≈ 15.9 to 31.7 µM)

Compound: COc1ccccc1NC(=O)COc1ccc(/C=C/c2cc(/C=C/c3ccc(OCC(=O)Nc4ccccc4OC)c(OC)c3)[nH]n2)cc1OC
- MIC [18]: 10 to 20 µg/mL (≈ 14.5 to 29 µM)

Compound: COc1ccccc1O [GUAIACOL]
- IC50 [19]: 4.1 µg/mL (≈ 33 µM)
- MBC [32]: ≥ 15 mM

Compound: COc1cc(/C=C/c2cc(/C=C/c3ccc(OCC(=O)Nc4cc(Cl)cc(Cl)c4)c(OC)c3)[nH]n2)ccc1OCC(=O)Nc1cc(Cl)cc(Cl)c1
- MIC [18]: 10 to 20 µg/mL (≈ 13 to 26 µM)

Compound: COc1cc(/C=C/c2cc(/C=C/c3ccc(OCC(=O)Nc4cccc(C(F)(F)F)c4)c(OC)c3)[nH]n2)ccc1OCC(=O)Nc1cccc(C(F)(F)F)c1
- MIC [18]: 10 to 20 µg/mL (≈ 13 to 26.1 µM)

Compound: COc1cc(/C=C/c2cc(/C=C/c3ccc(OCC(=O)N[C@H](C)c4ccccc4)c(OC)c3)[nH]n2)ccc1OCC(=O)N[C@H](C)c1ccccc1
- MIC [18]: 10 to 20 µg/mL (≈ 14.6 to 29.1 µM)

Source: ChEMBL document CHEMBL4265917, “Antibacterial and antioxidant activities for natural and synthetic dual-active compounds” (Eur J Med Chem, 2018)
